For one compound, Kd results are on record in paper PMC9060900 (RSC Advances, 2019).

The assay concerns the target T1, TMV coat protein (TMV-CP; TMV CP) (Tobacco mosaic virus (vulgare), UniProt P69687).
T1 sequence (P69687 2-159): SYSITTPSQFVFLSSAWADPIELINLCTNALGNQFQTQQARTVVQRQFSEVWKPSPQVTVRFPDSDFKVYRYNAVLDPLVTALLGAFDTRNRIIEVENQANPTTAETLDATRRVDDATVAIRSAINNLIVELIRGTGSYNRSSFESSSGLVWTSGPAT
Nature of the assay: microscale thermophoresis. It is filed as binding. On the technique in general: In MST a laser heats a spot of the sample, and binding alters the fluorescence response.

What is called Kd is the equilibrium constant for the complex coming apart. As to `Cc1csc(/C=C/C(=O)c2ccccc2OCCSc2nnc(-c3ccccc3)c(-c3ccccc3)n2)n1` [4o], binding was put at a Kd of 245 ± 63.9 µM.
